Source: paper PMC8741796, “In vitro characterization of a small molecule PD-1 inhibitor that targets the PD-l/PD-L1 interaction” (Scientific Reports, 2022)
“Also recorded” adds a separate entry of the source. Read-outs that look alike come from different tables or passages of the source.

Legend:
[1] = target: T1, PD-1/PD-L1 interaction (Homo sapiens, UniProt Q15116); test: Cell-based PD-1/PD-L1 checkpoint assay (bioluminescent NFAT-luciferase, Jurkat effector cells / PD-L1/TCR HEK293 target cells); settings: CH compounds 0, 10, 20, 40 µM; CH-4 effect at 10 µM
T1 construct: expressed in transfected cells
Description: Protein docking analysis identified six potential SMIs targeting PD-1: CH-1, CH-2, CH-3, CH-4, CH-5, and CH-6. To evaluate their capacity to inhibit the PD-1/PD-L1 interaction, we used a cell-based PD-1/PD-L1 inhibitor screening approach consisting of a bioluminescent cell-based assay containing two main components; genetically manipulated effector cells (growth-arrested reporter Jurkat cells) and engineered PD-L1/TCR-overexpressed HEK293 cells (target cells). In this assay, PD-1-expressed effector cells were genetically manipulated with the nuclear factor of activated T-cells (NFAT)-associated luciferase reporter gene. We used HEK293 cells for transient overexpression of PD-L1 and an engineered TCR activator as target cells. When the two cells were co-cultivated, the PD-1/PD-L1 interaction prevented TCR activation and suppressed NFAT-induced luciferase activity.
The WST-1 cytotoxicity assay evaluated cytotoxicity in effector cells (Jurkat cells) (Fig. 2A) and target cells (HEK293 cells) (Fig. 2B). The OD value that resulted from WST-1 reagent dye formation strongly correlated with the number of metabolically live cells. […] These groups were treated with increasing concentrations of anti-PD-1 neutralizing antibody (0, 0.1, 1 and 10 µg/mL) and luminescence intensity was determined after treatments. […]

[2] = system: HEK293 cells; test: WST-1 cell cytotoxicity assay in HEK293 cells; assay type: cell-based; settings: WST-1, 48 h
Procedure: (§1) The WST-1 cytotoxicity assay evaluated cytotoxicity in effector cells (Jurkat cells) (Fig. 2A) and target cells (HEK293 cells) (Fig. 2B). The OD value that resulted from WST-1 reagent dye formation strongly correlated with the number of metabolically live cells. To further characterize cytotoxicity tolerance, CC50 (cytotoxic concentration 50%) values were calculated and are shown in Table 1. […] Doses of compounds in the screening assay were based on the CC50 values of each cell line. Thus, screening concentrations of CH-1, -2, -3, -4 and -6 were 0, 10, 20 and 40 µM, respectively, while the concentrations for CH-5 were 0, 0.1, 1 and 10 µM, respectively. To ensure reliable screening, anti-PD-1 neutralizing antibody (Cat No. 71120) was used as a positive control for inhibiting the interaction of PD-1/PD-L1, while HEK293 cells transfected with control plasmid served as the negative control. These groups were treated with increasing concentrations of anti-PD-1 neutralizing antibody (0, 0.1, 1 and 10 µg/mL) and luminescence intensity was determined after treatments.
(§2) Figure 2 In vitro screening of leading compounds. (A) Jurkat cells and (B) HEK293 cells were treated with six leading compounds to test cytotoxicity. Cells were seeded into 96-well plates at a density of 7 × 10^3/well and incubated overnight. The cells were then treated for 48 h with different concentrations (0, 10, 20, 40, and 80 µM) of the six CH compounds. At 48 h, cell cytotoxicity WST-1 assays were performed. The x-axis indicates treatment concentrations, while the y-axis indicates the percentage of cell viability (each absolute absorbance value [abs. 450 nm–630 nm] was normalized with the controls). (C) The capacity of the CH compounds to inhibit the PD-1/PD-L1 interaction was tested using the bioluminescent cell-based assay. Effector cells (growth-arrested reporter Jurkat cells) were preincubated with anti-PD-1 neutralizing antibody (Cat No. 71120), DMSO, or each of the CH compounds. The activity of luciferase was determined as an indicator of cell activation. The graphs present mean ± SD (standard deviation) values from at least three independent experiments. (D) After overnight incubation, KG-1 cells were treated for 48 h with increasing concentrations of the CH compounds (0, 10, 20, 40, or 80 µM). (E) KG-1 cells were incubated with CH compounds prior to sPD-L1-Atto staining. Flow cytometry determined binding of the Ni–NTA-labeled sPD-L1 (PD-L1-Atto) complex to KG-1 cells expressing PD-1. Cell staining (Atto-subset) was blocked in the presence of the CH compounds. The experimental groups are indicated as (a) KG-1/PBS, (b) KG-1/Atto dye, (c) KG-1/sPD-L1/Atto dye, (d) KG-1/sPD-L1/Atto dye/CH-1, (e) KG-1/sPD-L1/Atto dye/CH-2, (f) KG-1/sPD-L1/Atto dye/CH-3, (g) KG-1/sPD-L1/Atto dye/CH-4, (h) KG-1/sPD-L1/Atto dye/CH-5, (i) KG-1/sPD-L1/Atto dye/CH6. (F) The cell staining data from (E) are normalized and quantified as relative MFI values. (G) At 48 h, PD-1 protein (20 µg/well) expression was determined by Western blotting. The bar graphs present the mean ± SD (standard deviation) values from three independent experiments. *p < 0.05, **p < 0.01, ***p < 0.001. TEXT PRINTED IN THE PICTURE: (E) d.: 33.1 % | (E) e.: 38.1 % | (E) f.: 52.9 % | (E) g.: 4.01 % | (E) h.: 38.35 % | (E) i.: 49.35 % DOUBTS OF THE COPYIST ABOUT THIS PICTURE: Panel E: the picture labels the histograms only with the sub-panel letters a.-i.; it prints no compound name or measure beside the percentages, so the letters are used as labels. / Panel E: sub-panels a. (3.52 %), b. (4.59 %) and c. (53.9 %) were left out because they appear to be controls without a test compound. / Panel E, small print: d. 33.1 % (3 or 8), e. 38.1 % (8 or 3), f. 52.9 % (9 or 8), h. 38.35 % (3, 5 and 8 uncertain) and i. 49.35 % (9, 3 and 5 uncertain) are best readings.
(§3) Figure 3 In vitro inhibition by the CH-4 analog of the PD-1/PD-L1 interaction. […]

[3] = system: Jurkat cells; test: WST-1 cell cytotoxicity assay in Jurkat cells; assay type: cell-based; settings: WST-1, 48 h
Procedure: as §1, §2, §3

[4] = system: KG-1 cells; test: WST-1 cell cytotoxicity assay in KG-1 cells; assay type: cell-based; settings: 10 µM, 48 h
Procedure: as §2
Using the WST-1 assay, CH compound cytotoxicities were quantified at different concentrations in KG-1 cells (Fig. 2D). […] The data indicated an appropriate concentration for testing inhibition of the PD-1/sPD-L1 interaction by flow cytometry. To clarify the inhibitory qualities of CH compounds in sPD-L1/PD-1 interactions, His-tagged sPD-L1 recombinant protein was labeled with Ni–NTA-conjugated fluorescent dye (Atto) and flow cytometry analysis was performed (Fig. 2E). […] When KG-1 cells were treated with increasing concentrations of CH-4, PD-1 expression was unchanged (Fig. 2G).
The WST-1 assay assessed cell cytotoxicity. Briefly, cells were seeded in 96-well plates at a density of […] (100 μL/well) with 10% FBS in the medium and incubated for 48 h, before undergoing a further 1 h of incubation at 37 °C with 10 μL of WST-1 solution added to each well. Cell viability was quantified by colormetric detection using an ELISA plate reader (Beckman Coulter PARADIGM Detection Platform; Beckman Coulter, IL, USA) at absorbance values of 450 nm and 690 nm to generate an optical density proportional to the relative abundance of live cells in the wells.

[5] = target: T2, PD-1/sPD-L1 interaction (Homo sapiens, UniProt Q15116); test: Flow cytometry of sPD-L1-Atto binding to KG-1 cells expressing PD-1; assay type: cell-based; settings: Ni-NTA-labeled sPD-L1
T2 construct: endogenous in cells; host or cells: KG-1 cells (ATCC)
Procedure: (§4) Figure 2 In vitro screening of leading compounds. (A) Jurkat cells and (B) HEK293 cells were treated with six leading compounds to test cytotoxicity. Cells were seeded into 96-well plates at a density of 7 × 10^3/well and incubated overnight. The cells were then treated for 48 h with different concentrations (0, 10, 20, 40, and 80 µM) of the six CH compounds. At 48 h, cell cytotoxicity WST-1 assays were performed. The x-axis indicates treatment concentrations, while the y-axis indicates the percentage of cell viability (each absolute absorbance value [abs. 450 nm–630 nm] was normalized with the controls). (C) The capacity of the CH compounds to inhibit the PD-1/PD-L1 interaction was tested using the bioluminescent cell-based assay. […] The activity of luciferase was determined as an indicator of cell activation. […] Flow cytometry determined binding of the Ni–NTA-labeled sPD-L1 (PD-L1-Atto) complex to KG-1 cells expressing PD-1. […] (F) The cell staining data from (E) are normalized and quantified as relative MFI values. (G) At 48 h, PD-1 protein (20 µg/well) expression was determined by Western blotting. […] 49.35 % (9, 3 and 5 uncertain) are best readings.
Using the WST-1 assay, CH compound cytotoxicities were quantified at different concentrations in KG-1 cells (Fig. 2D). […]

[6] = system: PD-1 protein; test: Western blotting of PD-1 protein expression in KG-1 cells; assay type: cell-based; settings: increasing concentrations, 48 h
Procedure: as §4, with “controls).” for “controls). (C) The capacity of the CH compounds to inhibit the PD-1/PD-L1 interaction was tested using the bioluminescent cell-based assay.”
Figure 3 In vitro inhibition by the CH-4 analog of the PD-1/PD-L1 interaction. […] The x-axis indicates treatment concentrations, while the y-axis indicates the percentage of cell viability (each absolute absorbance value [abs. 450 nm–630 nm] was normalized with the controls). […]

[7] = WST-1 cell cytotoxicity assay in HEK293 cells; assay type: cell-based; settings: human, HEK293 cells, WST-1, 48 h
Procedure: as §1, §2, §3

[8] = WST-1 cell cytotoxicity assay in Jurkat cells; assay type: cell-based; settings: human, Jurkat cells, WST-1, 48 h
Procedure: as §1, §2, §3

[9] = mean ± SD, Table 1, read-out: CC50 293 cells
[10] = read-out: CC50 HEK293 cells (tolerance)
[11] = mean ± SD, Table 1, read-out: CC50 Jurkat cells
[12] = read-out: CC50 Jurkat cells (tolerance)

T2 sequence (Q15116 25-288): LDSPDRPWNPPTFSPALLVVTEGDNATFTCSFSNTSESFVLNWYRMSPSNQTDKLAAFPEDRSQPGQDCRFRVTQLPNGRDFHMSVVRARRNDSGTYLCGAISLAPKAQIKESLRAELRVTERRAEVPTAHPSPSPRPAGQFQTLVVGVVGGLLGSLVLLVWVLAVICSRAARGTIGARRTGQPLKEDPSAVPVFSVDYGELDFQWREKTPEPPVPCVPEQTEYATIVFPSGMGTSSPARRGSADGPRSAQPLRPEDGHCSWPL
T1 sequence (Q15116 25-288): as above

SMILES: O=C(Nc1ccccc1)c1cc2ccccc2oc1=O [CH-4.9]
- inhibitory capacity for the PD-1/PD-L1 interaction (luciferase activity) [1]: failed to inhibit
- concentration associated with increasing cytotoxicity in HEK293 cells ([2]; Fig. 3A): exceeding 20 µM
- cytotoxicity in Jurkat cells ([3]; up to 100 µM, Fig. 3A): neither analog showed any evidence of cytotoxicity

SMILES: C/C(=N\NC(=O)CCSCCC(=O)N/N=C(\C)c1ccccc1)c1ccccc1 [CH-6]
- CC50 [2, 9]: 113 ± 26.1 µM
- CC50 [2, 10]: > 20 µM
- cytotoxicity to KG-1 cells [4]: low cytotoxicity
- CC50 [3, 11]: 103.4 ± 0.94 µM
- CC50 [3, 12]: > 20 µM

SMILES: Cc1ccccc1NC(=O)C(=O)CC(=O)c1sc(Nc2ccccc2[N+](=O)[O-])nc1C [CH-1]
- CC50 [2, 9]: 46.9 ± 10.2 µM
- CC50 [2, 10]: > 20 µM
- cytotoxicity to KG-1 cells [4]: low cytotoxicity
- CC50 [3, 11]: 133 ± 5.1 µM
- CC50 [3, 12]: > 20 µM

SMILES: COc1c(C(=O)Nc2ccc(C3=NCCN3)cc2)cccc1C(=O)Nc1ccc(C2=NCCN2)cc1 [CH-2]
- CC50 [2, 9]: 151 ± 32.5 µM
- CC50 [2, 10]: > 20 µM
- cytotoxicity to KG-1 cells [4]: low cytotoxicity
- CC50 [3, 11]: 94.9 ± 1.97 µM
- CC50 [3, 12]: > 20 µM

SMILES: COc1cc(-c2ccc(NC(=O)CSC(N)=O)c(OC)c2)ccc1NC(=O)CSC(N)=O [CH-3]
- CC50 [2, 9]: 78.1 ± 4.95 µM
- CC50 [2, 10]: > 20 µM
- cytotoxicity to KG-1 cells [4]: low cytotoxicity
- CC50 [3, 11]: 212 ± 46.5 µM
- CC50 [3, 12]: > 20 µM

SMILES: O=c1c(/C=C/c2c(O)ccc3ccccc23)nnc2sc(-c3cccc([N+](=O)[O-])c3)nn12 [CH-5]
- CC50 [2, 9]: 8.52 ± 1.74 µM
- cytotoxicity to KG-1 cells [4]: sensitized
- CC50 [3, 11]: 10.6 ± 2.67 µM

SMILES: COc1ccc(N=Nc2ccc3oc(=O)c(C(=O)Nc4ccc(OC)cc4)cc3c2)cc1 [CH-4]
- inhibition of sPD-L1 binding to KG-1 cells (shift in staining/fluorescence intensity) [5]: slight, yet significant, shift in staining intensity; also recorded: significantly decreased the shift in fluorescence intensity
- PD-1 protein expression [6]: unchanged
- inhibitory capacity for the PD-1/PD-L1 interaction (luciferase activity) [1]: potential inhibitory capacity
- CC50 at 48 h [7, 9]: 18.9 ± 1.53 µM
- CC50 at 48 h [7, 10]: > 20 µM
- cytotoxicity to KG-1 cells [4]: low cytotoxicity
- CC50 at 48 h [8, 11]: 30.3 ± 1.3 µM
- CC50 at 48 h [8, 12]: > 20 µM
